Assay results: ChEMBL document CHEMBL1125004, “Chemistry and pharmacology of the non-benzodiazepine anxiolytic enciprazine and related compounds” (1990)

Tests used:
Type in all cases: functional
[1] = species on record: Mus musculus; test: Ataxic activity in mice by rotarod test; Range (86.2-116.6)
[2] = tested on: Mus musculus; test: Antiaggressive anxiolytic activity in the electroshock-induced fighting test in mice (po); Range (0.58-2.63)
[3] = Ratio of ED50 (rotarod) to that of ED50 (fighting)
[4] = Ratio of ED50 (hexobarbital) to that of ED50 (fighting)
[5] = species on record: Mus musculus; test: Effect on hexobarbital induced sleep was determined in hexobarbital potentiation test; Range (172.3-227.4)
[6] = tested on: Mus musculus; test: Antiaggressive anxiolytic activity in the electroshock-induced fighting test in mice (po); Range (9.6-16.7)
[7] = tested on: Mus musculus; test: Antiaggressive anxiolytic activity in the electroshock-induced fighting test in mice (po); Range (9.7-19.3)
[8] = tested on: Mus musculus; test: Antiaggressive anxiolytic activity in the electroshock-induced fighting test in mice (po); Range (14.7-24.8)
[9] = species on record: Mus musculus; test: Ataxic activity in mice by rotarod test; Range (89.6-160.6)
[10] = tested on: Mus musculus; test: Antiaggressive anxiolytic activity in the electroshock-induced fighting test in mice (po); Range (0.9-1.8)
[11] = tested on: Mus musculus; test: Effect on hexobarbital induced sleep was determined in hexobarbital potentiation test (po); Range (36.0-59.6)
[12] = tested on: Rattus norvegicus; test: Antiaggressive anxiolytic activity in the hexagonal maze test in rat after ip administration of 0.3 mg/kg; settings: route intraperitoneal
[13] = species on record: Mus musculus; test: Effect on alcohol induced sleep was determined in ethanol potentiation test; Range (26.6-77.9)

`COc1cc(OCC(O)CN2CCN(c3ccccc3O)CC2)cc(OC)c1OC` (stereo not drawn) showed an ED50 [1] of 100 mg/kg, an ED50 [2] of 1.3 mg/kg and a Therapeutic index [3] of 77. For the same molecule, the Therapeutic index [4] was 154 and the ED50 [5] was 200 mg/kg.
In the case of `COc1cc(OCC(O)CN2CCN(c3ccc(C)c(C)c3)CC2)cc(OC)c1OC.Cl` (stereo not drawn), the ED50 [6] is reported as 13 mg/kg.
In the case of `COc1cc(OCC(O)CN2CCN(c3ccccc3SC)CC2)cc(OC)c1OC.Cl` (stereo not drawn), the ED50 [7] is reported as 14 mg/kg.
In the case of `CCOc1ccccc1N1CCN(CC(O)COc2cc(OC)c(OC)c(OC)c2)CC1.Cl` (stereo not drawn), the ED50 [8] is reported as 19 mg/kg.
Work on `COc1ccccc1N1CCN(CC(O)COc2cc(OC)c(OC)c(OC)c2)CC1.Cl` (stereo not drawn) yielded an ED50 [9] of 120 mg/kg, an ED50 [10] of 1.4 mg/kg and an ED50 [11] of 46.4 mg/kg. The Prolongation [12] was 3.2% and the ED50 [13] was 45.5 mg/kg.
